Test results: patent publication US20240374738A1, “BIFUNCTIONAL COMPOUND CAPABLE OF DEGRADING RECEPTOR TYROSINE KINASE AND APPLICATION THEREOF” (TAIBIDI PHARMACEUTICAL TECHNOLOGY (SHIJIAZHUANG) CO., LTD., priority 2023, published 2024)
Where a SMILES comes first, the peptide text is derived from it. The star is where a group is joined. Cbz = O=C(OCc1ccccc1)*

Columns and labels:
Assay type in all cases: cell-based
DDR1 [1] = target: T1, DDR1 (Homo sapiens, UniProt Q08345); experiment: Competition inhibition experiments (DDR1 Western blot); parameters: endogenous in cells; host or cells: unnamed tumor cells; conditions: TPD12140 100 nM plus different concentrations of competitor, 24 h
Protocol: Tumor cells were taken and inoculated into 6-well plates with 1×3×10^5 cells per well, and the cell growth status was observed on the next day. When the cells reached 80% confluence, TPD12140 (working concentration 100 nM) and different concentrations of cabozantinib or lenalidomide were added to the cell culture medium of the experimental group, and the control group was added with an equal volume of DMSO, and the incubation was continued for 24 h. Western Blot was performed to detect the expression of DDR1 protein (the same operation as above). The experiments were repeated three times or more, and the experimental data were statistically analyzed using GraphPad Prism software.

DDR1 [2] = target: T1, DDR1; experiment: Experiments with inhibitors of the ubiquitin-proteasome system (DDR1 Western blot); parameters: endogenous in cells; host or cells: unnamed tumor cells; conditions: MG132 10 uM or MLN4924 1 uM for 6 hours, then TPD12140 100 nM 18 h
Protocol: Tumor cells were inoculated into 6-well plates with 1-3×10^5 cells per well, and the cell growth status was observed the next day. When the cells grew to about 80% confluence, the proteasome inhibitor MG132 (working concentration 10 uM) or the protein ubiquitination inhibitor MLN4924 (working concentration 1 uM) was added to the cell culture medium of the experimental group, and an equal volume of DMSO was added to the control group, and the incubation was continued for 6 hours. The medium in the well plates was discarded, washed twice with PBS, fresh medium was added, and compound TPD12140 (working concentration 100 nM) or an equal volume of DMSO was added to each group of cells, and the incubation was continued for 18 h. Western Blot was performed to detect the expression of DDR1 protein (same operation as above). The experiments were repeated three times or more, and the experimental data were statistically analyzed using GraphPad Prism software.

SNU5 = experiment: Growth inhibition of gastric cancer cells SNU5 (CCK-8); conditions: Homo sapiens, SNU-5, half inhibitory concentration, 72 hours
In short: (§1)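 MKN45 or SNU5 cells in 96-well plates were treated with compound dilution series in triplicate for 72 h. Viability was read by CCK-8 (1 h, absorbance 450 nm), and inhibition was calculated against blank and medium-only controls. IC50 came from concentration-response curves.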

MKN45 = experiment: Growth inhibition of gastric cancer cells MKN45 (CCK-8); conditions: Homo sapiens, MKN-45, half inhibitory concentration, 72 hours
In short: as §1

DDR1 [3] = target: T1, DDR1; experiment: Degradation of DDR1 in tumor cell MKN45 (Western blot); parameters: The degradation activity of the compounds against DDR1 in the MKN45 cell line; endogenous in cells; host or cells: MKN45; conditions: MKN-45, maximum degradation percentage, MKN45 cells, 24 hours
In short: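 MKN45 gastric cancer cells were treated with compound dilutions for 24 h at a final DMSO of 0.5%; the 2 mM–200 nM series is the added solution, not the final concentration. DDR1 in lysates was quantified by Western blot, normalized to GAPDH and expressed relative to blank control, giving DC50 and Dmax.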

T1 sequence (Q08345 19-913): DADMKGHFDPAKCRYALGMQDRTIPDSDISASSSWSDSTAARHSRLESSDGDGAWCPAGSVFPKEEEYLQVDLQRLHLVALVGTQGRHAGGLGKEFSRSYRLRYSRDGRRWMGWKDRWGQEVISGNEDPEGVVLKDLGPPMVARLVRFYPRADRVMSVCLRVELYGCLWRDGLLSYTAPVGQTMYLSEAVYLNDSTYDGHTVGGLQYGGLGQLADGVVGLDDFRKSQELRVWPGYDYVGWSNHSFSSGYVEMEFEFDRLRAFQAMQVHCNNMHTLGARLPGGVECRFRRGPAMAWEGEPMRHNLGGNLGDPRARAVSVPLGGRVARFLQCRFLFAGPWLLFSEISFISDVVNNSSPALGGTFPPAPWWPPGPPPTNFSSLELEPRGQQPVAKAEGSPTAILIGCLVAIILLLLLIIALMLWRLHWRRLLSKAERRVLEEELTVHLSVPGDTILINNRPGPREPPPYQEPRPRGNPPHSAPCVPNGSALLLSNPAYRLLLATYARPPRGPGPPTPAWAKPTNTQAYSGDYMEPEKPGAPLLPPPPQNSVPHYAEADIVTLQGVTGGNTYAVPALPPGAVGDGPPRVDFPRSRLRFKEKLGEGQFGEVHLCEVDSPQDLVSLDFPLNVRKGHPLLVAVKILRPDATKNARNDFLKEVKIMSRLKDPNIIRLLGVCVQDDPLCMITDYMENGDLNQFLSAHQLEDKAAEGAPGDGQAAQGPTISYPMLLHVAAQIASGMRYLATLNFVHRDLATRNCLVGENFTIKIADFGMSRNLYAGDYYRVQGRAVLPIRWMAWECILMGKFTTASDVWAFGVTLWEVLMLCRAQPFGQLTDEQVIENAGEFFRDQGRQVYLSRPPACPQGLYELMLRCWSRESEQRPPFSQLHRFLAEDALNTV

IC50 (SNU5) | IC50 (MKN45) | Dmax (DDR1 [3]) | SMILES | effect of competitor on degradation of DDR1 by TPD12140 (DDR1 [1]) | effect of inhibitor on degradation of DDR1 by TPD12140 (DDR1 [2])
 |  |  | Nc1cccc2c1CN(C1CCC(=O)NC1=O)C2=O (stereo not drawn) [lenalidomide] | inhibits the degradation of DDR1 by the compound | 
 |  |  | NS(=O)(=O)OC[C@@H]1C[C@@H](n2ccc3c(N[C@H]4CCc5ccccc54)ncnc32)C[C@@H]1O [MLN4924] |  | can inhibit the degradation of the compounds
 |  |  | CC(C)C[C@@H](C=O)NC(=O)[C@H](CC(C)C)NC(=O)[C@H](CC(C)C)NC(=O)OCc1ccccc1 [MG132] (Cbz-Leu-Leu-Leu-aldehyde) |  | can inhibit the degradation of the compounds
100 to 500 nM | 100 to 500 nM | 65 to 75% | COc1cc2c(Oc3ccc(NC(=O)C4(C(=O)Nc5ccc(F)cc5)CC4)cc3)ccnc2cc1COCCN1CCC(CCNc2cccc3c2C(=O)N(C2CCC(=O)NC2=O)C3=O)CC1 (stereo not drawn) [TPD5313] |  | 
≤ 100 nM | ≤ 100 nM | 75 to 85% | COc1cc2c(Oc3ccc(NC(=O)C4(C(=O)Nc5ccc(F)cc5)CC4)cc3)ccnc2cc1N1CCN(CCCC(=O)N[C@H](C(=O)N2C[C@H](O)C[C@H]2C(=O)NCc2ccc(-c3scnc3C)cc2)C(C)(C)C)CC1 [TPD5457] |  | 
100 to 500 nM | 100 to 500 nM | 75 to 85% | COc1cc2c(Oc3ccc(NC(=O)C4(C(=O)Nc5ccc(F)cc5)CC4)cc3)ccnc2cc1N1CCC(N2CCN(C(=O)CCOCC(=O)N[C@H](C(=O)N3C[C@H](O)C[C@H]3C(=O)NCc3ccc(-c4scnc4C)cc3)C(C)(C)C)CC2)CC1 [TPD5495] |  | 
≤ 100 nM | ≤ 100 nM | > 85% | COc1cc2c(Oc3ccc(NC(=O)C4(C(=O)Nc5ccc(F)cc5)CC4)cc3)ccnc2cc1N1CCC(CN2CCN(CC(=O)Nc3cccc4c3CN(C3CCC(=O)NC3=O)C4=O)CC2)CC1 (stereo not drawn) [TPD5901] |  | 
100 to 500 nM | 100 to 500 nM | 65 to 75% | COc1cc2c(Oc3ccc(NC(=O)C4(C(=O)Nc5ccc(F)cc5)CC4)cc3)ccnc2cc1NC(=O)CN1CCC(CN2CCN(c3ccc(N(C)C4CCC(=O)NC4=O)nc3F)CC2)CC1 (stereo not drawn) [TPD5760] |  | 
100 to 500 nM | 100 to 500 nM | 75 to 85% | COc1cc2c(Oc3ccc(NC(=O)C4(C(=O)Nc5ccc(F)cc5)CC4)cc3)ccnc2cc1N1CCC(CN2CCC(C(=O)N3C[C@H](O)C[C@H]3C(=O)NCc3ccc(-c4scnc4C)cc3)CC2)CC1 [TPD5421] |  | 
500 to 1000 nM | 500 to 1000 nM | 65 to 75% | COc1cc2c(Oc3ccc(NC(=O)C4(C(=O)Nc5ccc(F)cc5)CC4)cc3)ccnc2cc1NC(=O)CC1CCN(C(=O)CN2CCN(c3ccc4c(c3)C(=O)N(C3CCC(=O)NC3=O)C4=O)CC2)CC1 (stereo not drawn) [TPD5745] |  | 
≤ 100 nM | 100 to 500 nM | 75 to 85% | COc1cc2c(Oc3ccc(NC(=O)C4(C(=O)Nc5ccc(F)cc5)CC4)cc3)ccnc2cc1N1CCC(N2CC(C(=O)N[C@H](C(=O)N3C[C@H](O)C[C@H]3C(=O)NCc3ccc(-c4scnc4C)cc3)C(C)(C)C)C2)CC1 [TPD5432] |  | 
≤ 100 nM | ≤ 100 nM | 65 to 75% | COc1cc2c(Oc3ccc(NC(=O)C4(C(=O)Nc5ccc(F)cc5)CC4)cc3)ccnc2cc1N1CCC(CN2CCC(C(=O)N[C@H](C(=O)N3C[C@H](O)C[C@H]3C(=O)NCc3ccc(-c4scnc4C)cc3)C(C)(C)C)CC2)CC1 [TPD5402b] |  | 
100 to 500 nM | 100 to 500 nM | 75 to 85% | COc1cc2c(Oc3ccc(NC(=O)C4(C(=O)Nc5ccc(F)cc5)CC4)cc3)ccnc2cc1N1CCC(OCCC(=O)Nc2ccc3c(c2)C(=O)N(C2CCC(=O)NC2=O)C3=O)CC1 (stereo not drawn) [TPD5706] |  | 
100 to 500 nM | 100 to 500 nM | 65 to 75% | COc1cc2c(Oc3ccc(NC(=O)C4(C(=O)Nc5ccc(F)cc5)CC4)cc3)ccnc2cc1NCCC(=O)N[C@H](C(=O)N1C[C@H](O)C[C@H]1C(=O)NCc1ccc(-c2scnc2C)cc1)C(C)(C)C [TPD5415] |  | 
100 to 500 nM | 100 to 500 nM | 75 to 85% | COc1cc2c(Oc3ccc(NC(=O)C4(C(=O)Nc5ccc(F)cc5)CC4)cc3)ccnc2cc1N1CCC(OCC(=O)N[C@H](C(=O)N2C[C@H](O)C[C@H]2C(=O)NCc2ccc(-c3scnc3C)cc2)C(C)(C)C)CC1 [TPD5411] |  | 
≤ 100 nM | ≤ 100 nM | 65 to 75% | O=C1CCC(N2Cc3cc(NC(=O)CN4C[C@@H]5C[C@H]4CN5CC4CCN(c5cc6nccc(Oc7ccc(NC(=O)C8(C(=O)Nc9ccc(F)cc9)CC8)cc7)c6cc5F)CC4)ccc3C2=O)C(=O)N1 (stereo partly drawn) [TPD12205] |  | 
≤ 100 nM | ≤ 100 nM | 75 to 85% | O=C1CCC(N2Cc3cc(NC(=O)CN4C[C@@H]5C[C@H]4CN5CC4CCN(c5cc6nccc(Oc7ccc(NC(=O)C8(C(=O)Nc9ccc(F)cc9)CC8)cc7)c6cc5F)CC4)ncc3C2=O)C(=O)N1 (stereo partly drawn) [TPD12102] |  | 
≤ 100 nM | ≤ 100 nM | 65 to 75% | COc1cc2c(Oc3ccc(NC(=O)C4(C(=O)Nc5ccc(F)cc5)CC4)cc3)ccnc2cc1N1CCC(CC(=O)N[C@H](C(=O)N2C[C@H](O)C[C@H]2C(=O)NCc2ccc(-c3scnc3C)cc2)C(C)(C)C)CC1 [TPD5410] |  | 

SMILES | IC50 (SNU5) | IC50 (MKN45) | Dmax (DDR1 [3]) | effect of competitor on degradation of DDR1 by TPD12140 (DDR1 [1]) | effect of inhibitor on degradation of DDR1 by TPD12140 (DDR1 [2])
COc1cc2c(Oc3ccc(NC(=O)C4(C(=O)Nc5ccc(F)cc5)CC4)cc3)ccnc2cc1N1CCC(CN2C3CC2CN(CCC#Cc2cccc4c2CN(C2CCC(=O)NC2=O)C4=O)C3)CC1 (stereo not drawn) [TPD12234] | ≤ 100 nM | ≤ 100 nM | 75 to 85% |  | 
COc1cc2c(Oc3ccc(NC(=O)C4(C(=O)Nc5ccc(F)cc5)CC4)cc3)ccnc2cc1N1CCC(CN2CCN(CCNc3cc4c(cn3)C(=O)N(C3CCC(=O)NC3=O)C4)CC2)CC1 (stereo not drawn) [TPD12003] | ≤ 100 nM | ≤ 100 nM | 75 to 85% |  | 
COc1cc2c(Oc3ccc(NC(=O)C4(C(=O)Nc5ccc(F)cc5)CC4)cc3)ccnc2cc1N1CCC(CN2CCC(N3CCN(c4cccc5c4CN(C4CCC(=O)NC4=O)C5=O)CC3)CC2)CC1 (stereo not drawn) [TPD5907] | ≤ 100 nM | ≤ 100 nM | > 85% |  | 
O=C1CCC(N2Cc3cc(NC(=O)CCN4CC5CC(C4)N5CC4CCN(c5cc6nccc(Oc7ccc(NC(=O)C8(C(=O)Nc9ccc(F)cc9)CC8)cc7)c6cc5F)CC4)ccc3C2=O)C(=O)N1 (stereo not drawn) [TPD12215] | ≤ 100 nM | ≤ 100 nM | 75 to 85% |  | 
C[C@@H](Oc1cc(-c2cnn(C3CCN(CCN4CCN(c5ccc6c(c5)C(=O)N(C5CCC(=O)NC5=O)C6=O)CC4)CC3)c2)cnc1N)c1c(Cl)ccc(F)c1Cl (stereo partly drawn) [TPD10041] | ≤ 100 nM | 500 to 1000 nM | > 85% |  | 
O=C1CCC(N2Cc3c(C#CCCN4CC5CC(C4)N5CC4CCN(c5cc6nccc(Oc7ccc(NC(=O)C8(C(=O)Nc9ccc(F)cc9)CC8)cc7)c6cc5F)CC4)cccc3C2=O)C(=O)N1 (stereo not drawn) [TPD12235] | ≤ 100 nM | ≤ 100 nM | 65 to 75% |  | 
O=C1CCC(N2Cc3cc(NC(=O)CCN4CC5CC(C4)N5CC4CCN(c5cc6nccc(Oc7ccc(NC(=O)C8(C(=O)Nc9ccc(F)cc9)CC8)cc7)c6cc5OC(F)(F)F)CC4)ncc3C2=O)C(=O)N1 (stereo not drawn) [TPD12148] | ≤ 100 nM | ≤ 100 nM | 65 to 75% |  | 
CNC(=O)c1ccc(-c2cnc3ncc(Cc4ccc5ncc(NC(=O)CN6CCC(CN7CCN(c8ccc9c(c8)C(=O)N(C8CCC(=O)NC8=O)C9=O)CC7)CC6)cc5c4)n3n2)cc1F (stereo not drawn) [TPD7026] | ≤ 100 nM | ≤ 100 nM | 65 to 75% |  | 
